Laboratory results published in patent US12077503B2, “Substituted cyclic amides and their use as herbicides” (FMC CORPORATION, priority 2015, dated 2024).

How the values were obtained:
Assay type in all cases: in vivo
[1] = test system: pigweed (Amaranthus retroflexus); experiment: Test A preemergence; settings: Amaranthus retroflexus, pre-emergence, 240 h, 0 to 100 scale where 0 is no effect and 100 is complete control, read-out: Pigweed plant response rating
[2] = test system: barnyardgrass (Echinochloa crus-galli); experiment: Test A preemergence; settings: Echinochloa crus-galli, pre-emergence, 240 h, 0 to 100 scale where 0 is no effect and 100 is complete control, read-out: Barnyardgrass plant response rating
How it was run: (§1)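 Visual injury, scored on a 0–100 scale relative to untreated controls, was recorded about 10 d after application. Treatments were a preemergence soil spray over planted seeds or a postemergence spray on plants at the one- to two-leaf stage, 2 to 10 cm tall, all in loam soil–sand blend in the greenhouse.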

Kochia (Kochia scoparia) [3] = experiment: Test A preemergence; settings: Bassia scoparia, pre-emergence, 240 h, 0 to 100 scale where 0 is no effect and 100 is complete control, read-out: Kochia plant response rating
How it was run: as §1

[4] = test system: ragweed (common ragweed, Ambrosia elatior); experiment: Test A preemergence; settings: Ambrosia artemisiifolia, pre-emergence, 240 h, 0 to 100 scale where 0 is no effect and 100 is complete control, read-out: Ragweed plant response rating
How it was run: as §1

[5] = test system: giant foxtail (Setaria faberii); experiment: Test A preemergence; settings: Setaria faberi, pre-emergence, 240 h, 0 to 100 scale where 0 is no effect and 100 is complete control, read-out: Foxtail, Giant plant response rating
How it was run: as §1

[6] = test system: ryegrass, Italian (Italian ryegrass, Lolium multiflorum); experiment: Test A preemergence; settings: Lolium multiflorum, pre-emergence, 240 h, 0 to 100 scale where 0 is no effect and 100 is complete control, read-out: Ryegrass, Italian plant response rating
How it was run: as §1

[7] = test system: pigweed (Amaranthus retroflexus); experiment: Test A postemergence; settings: Amaranthus retroflexus, post-emergence, 240 h
How it was run: as §1

[8] = test system: barnyardgrass (Echinochloa crus-galli); experiment: Test A postemergence; settings: Echinochloa crus-galli, post-emergence, 240 h
How it was run: as §1

corn (Zea mays) = experiment: Test A postemergence; settings: Zea mays, post-emergence, 240 h
How it was run: as §1

[9] = test system: blackgrass (Alopecurus myosuroides); experiment: Test A postemergence; settings: Alopecurus myosuroides, post-emergence, 240 h
How it was run: as §1

Kochia (Kochia scoparia) [10] = experiment: Test A postemergence; settings: Bassia scoparia, post-emergence, 240 h
How it was run: as §1

[11] = test system: wheat (Triticum aestivum); experiment: Test A postemergence; settings: Triticum aestivum, post-emergence, 240 h
How it was run: as §1

[12] = test system: ragweed (common ragweed, Ambrosia elatior); experiment: Test A postemergence; settings: Ambrosia artemisiifolia, post-emergence, 240 h
How it was run: as §1

[13] = test system: giant foxtail (Setaria faberii); experiment: Test A postemergence; settings: Setaria faberi, post-emergence, 240 h
How it was run: as §1

[14] = test system: ryegrass, Italian (Italian ryegrass, Lolium multiflorum); experiment: Test A postemergence; settings: Lolium multiflorum, post-emergence, 240 h
How it was run: as §1

[15] = test system: sedge, umbrella (small-flower umbrella sedge, Cyperus difformis); experiment: Test B flooded paddy test; settings: Cyperus difformis, 250 g ai/ha, Flood; 0 to 100 scale where 0 is no effect and 100 is complete control; read-out: Sedge, Umbrella plant response rating
How it was run: (§2)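 Rating scale 0–100 (visual, vs untreated controls) after a 13–15 d greenhouse period; application to the flood layer, 3 cm above soil and maintained; plants at 2-leaf stage when treated.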

[16] = test system: barnyardgrass (Echinochloa crus-galli); experiment: Test B flooded paddy test; settings: Echinochloa crus-galli, 250 g ai/ha, Flood; 0 to 100 scale where 0 is no effect and 100 is complete control; read-out: Barnyardgrass plant response rating
How it was run: as §2

rice (Oryra sativa) = experiment: Test B flooded paddy test; settings: Oryza sativa, 250 g ai/ha, Flood; 0 to 100 scale where 0 is no effect and 100 is complete control; read-out: Rice plant response rating
How it was run: as §2

[17] = test system: ducksalad (Heteranthera limosa); experiment: Test B flooded paddy test; settings: Heteranthera limosa, 250 g ai/ha, Flood; 0 to 100 scale where 0 is no effect and 100 is complete control; read-out: Ducksalad plant response rating
How it was run: as §2

[18] = 125 g ai/ha, preemergence, approx. 10 d

CC(C)Oc1cc([C@H]2CN(C)C(=O)[C@@H]2C(=O)Nc2cccc(F)c2F)ccc1F [Compound 1075]
pest or weed control at 31 g/ha ([1]; 31 g ai/ha, Preemergence): 0%
pest or weed control at 125 g/ha [1, 18]: 20%
pest or weed control at 31 g/ha ([2]; 31 g ai/ha, Preemergence): 100%
pest or weed control at 125 g/ha [2, 18]: 100%
pest or weed control at 31 g/ha (Kochia (Kochia scoparia) [3]; 31 g ai/ha, Preemergence): 0%
pest or weed control at 125 g/ha (Kochia (Kochia scoparia) [3]; [18]): 30%
pest or weed control at 31 g/ha ([4]; 31 g ai/ha, Preemergence): 30%
pest or weed control at 125 g/ha [4, 18]: 20%
pest or weed control at 31 g/ha ([5]; 31 g ai/ha, Preemergence): 100%
pest or weed control at 125 g/ha [5, 18]: 100%
pest or weed control at 31 g/ha ([6]; 31 g ai/ha, Preemergence): 50%
pest or weed control at 125 g/ha [6, 18]: 80%
pest or weed control at 125 g/ha ([7]; 125 g ai/ha, postemergence, visual injury on 0 to 100 scale (0 no effect, 100 complete control), approx. 10 d, read-out: Pigweed plant response rating): 0%
pest or weed control at 31 g/ha ([7]; Postemergence, 31 g ai/ha, visual injury after approx. 10 d, 0 to 100 scale, 0 no effect, 100 complete control, read-out: Plant response rating, Pigweed): 0%
pest or weed control at 125 g/ha ([8]; 125 g ai/ha, postemergence, visual injury on 0 to 100 scale (0 no effect, 100 complete control), approx. 10 d, read-out: Barnyardgrass plant response rating): 90%
pest or weed control at 31 g/ha ([8]; Postemergence, 31 g ai/ha, visual injury after approx. 10 d, 0 to 100 scale, 0 no effect, 100 complete control, read-out: Plant response rating, Barnyardgrass): 90%
plant injury at 125 g/ha (corn (Zea mays); 125 g ai/ha, postemergence, visual injury on 0 to 100 scale (0 no effect, 100 complete control), approx. 10 d, read-out: Corn plant response rating): 70%
Corn plant response rating (crop injury, 0 = no effect, 100 = complete kill) at 31 g/ha (corn (Zea mays); Postemergence, 31 g ai/ha, visual injury after approx. 10 d, 0 to 100 scale, 0 no effect, 100 complete control): 20%
pest or weed control at 125 g/ha ([9]; 125 g ai/ha, postemergence, visual injury on 0 to 100 scale (0 no effect, 100 complete control), approx. 10 d, read-out: Blackgrass plant response rating): 50%
pest or weed control at 31 g/ha ([9]; Postemergence, 31 g ai/ha, visual injury after approx. 10 d, 0 to 100 scale, 0 no effect, 100 complete control, read-out: Plant response rating, Blackgrass): 40%
pest or weed control at 125 g/ha (Kochia (Kochia scoparia) [10]; 125 g ai/ha, postemergence, visual injury on 0 to 100 scale (0 no effect, 100 complete control), approx. 10 d, read-out: Kochia plant response rating): 30%
pest or weed control at 31 g/ha (Kochia (Kochia scoparia) [10]; Postemergence, 31 g ai/ha, visual injury after approx. 10 d, 0 to 100 scale, 0 no effect, 100 complete control, read-out: Plant response rating, Kochia): 30%
plant injury at 125 g/ha ([11]; 125 g ai/ha, postemergence, visual injury on 0 to 100 scale (0 no effect, 100 complete control), approx. 10 d, read-out: Wheat plant response rating): 60%
plant injury at 31 g/ha ([11]; Postemergence, 31 g ai/ha, visual injury after approx. 10 d, 0 to 100 scale, 0 no effect, 100 complete control, read-out: Plant response rating, Wheat): 0%
pest or weed control at 125 g/ha ([12]; 125 g ai/ha, postemergence, visual injury on 0 to 100 scale (0 no effect, 100 complete control), approx. 10 d, read-out: Ragweed plant response rating): 40%
pest or weed control at 31 g/ha ([12]; Postemergence, 31 g ai/ha, visual injury after approx. 10 d, 0 to 100 scale, 0 no effect, 100 complete control, read-out: Plant response rating, Ragweed): 0%
pest or weed control at 125 g/ha ([13]; 125 g ai/ha, postemergence, visual injury on 0 to 100 scale (0 no effect, 100 complete control), approx. 10 d, read-out: Foxtail, Giant plant response rating): 90%
pest or weed control at 31 g/ha ([13]; Postemergence, 31 g ai/ha, visual injury after approx. 10 d, 0 to 100 scale, 0 no effect, 100 complete control, read-out: Plant response rating, Foxtail, Giant): 80%
pest or weed control at 125 g/ha ([14]; 125 g ai/ha, postemergence, visual injury on 0 to 100 scale (0 no effect, 100 complete control), approx. 10 d, read-out: Ryegrass, Italian plant response rating): 70%
pest or weed control at 31 g/ha ([14]; Postemergence, 31 g ai/ha, visual injury after approx. 10 d, 0 to 100 scale, 0 no effect, 100 complete control, read-out: Plant response rating, Ryegrass, Italian): 0%
pest or weed control at 250 g/ha [15]: 0%
pest or weed control at 250 g/ha [16]: 75%
pest or weed control at 250 g/ha (rice (Oryra sativa)): 35%
pest or weed control at 250 g/ha [17]: 100%
